Values belong to the molecule of their own block, whether it stands above or below them.
How the values were obtained:
[1] = molecular target: T1, Sphingosine kinase 2 (Homo sapiens, UniProt Q9NRA0); assay: Inhibition of recombinant GST-tagged SphK2 (unknown origin) (1 to 618 residues) expressed in baculovirus using sphingosine as substrate incubated for 1 hr in presence of ATP by electrophoretic mobility shift assay
T1 sequence (Q9NRA0 whole entry): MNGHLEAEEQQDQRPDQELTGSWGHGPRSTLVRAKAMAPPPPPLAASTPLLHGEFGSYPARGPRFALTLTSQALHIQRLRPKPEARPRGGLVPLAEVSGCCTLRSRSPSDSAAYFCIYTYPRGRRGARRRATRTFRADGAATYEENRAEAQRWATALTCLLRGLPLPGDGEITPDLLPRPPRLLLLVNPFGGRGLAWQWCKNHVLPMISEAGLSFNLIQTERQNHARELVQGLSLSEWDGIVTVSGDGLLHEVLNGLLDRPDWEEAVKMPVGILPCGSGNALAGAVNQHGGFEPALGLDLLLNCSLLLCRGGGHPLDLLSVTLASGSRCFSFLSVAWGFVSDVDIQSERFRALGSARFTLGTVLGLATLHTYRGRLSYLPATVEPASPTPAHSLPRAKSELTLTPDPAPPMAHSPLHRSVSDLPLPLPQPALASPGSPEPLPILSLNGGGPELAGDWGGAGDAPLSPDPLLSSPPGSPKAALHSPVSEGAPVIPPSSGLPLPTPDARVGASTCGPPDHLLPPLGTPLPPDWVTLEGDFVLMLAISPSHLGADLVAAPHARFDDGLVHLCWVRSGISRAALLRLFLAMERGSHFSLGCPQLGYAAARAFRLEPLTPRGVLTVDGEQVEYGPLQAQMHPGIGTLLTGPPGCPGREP

[2] = molecular target: T2, Sphingosine kinase 1 (Homo sapiens, UniProt Q9NYA1); assay: Inhibition of recombinant GST-tagged SphK1 (unknown origin) (1 to 384 residues) expressed in baculovirus using sphingosine as substrate incubated for 1 hr in presence of ATP by electrophoretic mobility shift assay
T2 sequence (Q9NYA1 whole entry, the tested form may be a part): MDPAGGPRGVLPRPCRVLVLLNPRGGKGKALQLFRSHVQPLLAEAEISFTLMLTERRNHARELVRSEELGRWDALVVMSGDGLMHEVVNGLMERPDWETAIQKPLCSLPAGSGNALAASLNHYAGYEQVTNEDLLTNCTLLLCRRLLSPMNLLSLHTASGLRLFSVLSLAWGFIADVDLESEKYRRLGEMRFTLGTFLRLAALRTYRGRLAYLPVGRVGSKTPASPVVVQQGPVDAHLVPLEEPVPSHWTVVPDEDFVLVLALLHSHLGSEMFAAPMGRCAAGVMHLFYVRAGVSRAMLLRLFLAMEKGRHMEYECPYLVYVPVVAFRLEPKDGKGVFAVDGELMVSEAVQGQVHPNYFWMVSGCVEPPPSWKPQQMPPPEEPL

[3] = molecular target: T2, Sphingosine kinase 1; assay: Inhibition of SphK1 (unknown origin) using ATP as substrate preincubated for 40 mins followed by substrate addition and measured after 5 mins by spectrophotometric analysis
[4] = molecular target: T1, Sphingosine kinase 2; assay: Inhibition of SphK2 (unknown origin) using ATP as substrate preincubated for 40 mins followed by substrate addition and measured after 5 mins by spectrophotometric analysis
[5] = molecular target: T2, Sphingosine kinase 1; assay: Inhibition of recombinant SphK1 (unknown origin) using NBD-sphingosine as substrate in presence of ATP by fluorescence plate reader analysis
[6] = molecular target: T1, Sphingosine kinase 2; assay: Inhibition of SphK2 (unknown origin) assessed as inhibition constant
[7] = molecular target: T2, Sphingosine kinase 1; assay: Inhibition of SphK1 (unknown origin) assessed as inhibition constant
[8] = molecular target: T2, Sphingosine kinase 1; assay: Inhibition of SphK1 (unknown origin)
[9] = molecular target: T1, Sphingosine kinase 2; assay: Inhibition of SphK2 (unknown origin)
[10] = molecular target: T1, Sphingosine kinase 2; assay: Inhibition of recombinant SphK2 (unknown origin) using NBD-sphingosine as substrate in presence of ATP by fluorescence plate reader analysis
[11] = molecular target: T3, Sphingosine kinase 2 (Mus musculus, UniProt Q9JIA7); assay: Inhibition of recombinant mouse SphK2 expressed in baculovirus infected Sf9 cells using D-erythro-sphingosine and [gamma-32P]ATP as substrate incubated for 30 mins by liquid scintillation counting analysis
T3 sequence (Q9JIA7 whole entry): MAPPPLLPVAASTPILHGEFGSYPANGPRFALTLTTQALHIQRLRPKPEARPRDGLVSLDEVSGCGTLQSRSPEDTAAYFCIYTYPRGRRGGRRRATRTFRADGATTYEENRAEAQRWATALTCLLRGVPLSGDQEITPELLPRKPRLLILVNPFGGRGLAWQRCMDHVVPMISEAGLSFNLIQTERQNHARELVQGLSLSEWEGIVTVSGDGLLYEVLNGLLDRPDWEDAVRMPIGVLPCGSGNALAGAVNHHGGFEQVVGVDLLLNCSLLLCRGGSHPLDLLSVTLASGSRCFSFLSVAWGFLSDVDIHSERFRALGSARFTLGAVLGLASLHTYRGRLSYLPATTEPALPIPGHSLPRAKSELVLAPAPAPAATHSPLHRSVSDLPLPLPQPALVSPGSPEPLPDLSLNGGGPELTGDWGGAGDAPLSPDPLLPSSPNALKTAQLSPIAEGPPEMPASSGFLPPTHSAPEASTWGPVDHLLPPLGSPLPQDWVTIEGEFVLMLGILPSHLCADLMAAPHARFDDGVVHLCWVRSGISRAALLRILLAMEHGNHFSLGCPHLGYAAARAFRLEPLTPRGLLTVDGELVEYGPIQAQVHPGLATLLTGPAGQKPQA

[12] = molecular target: Sphingosine kinase 1 (Mus musculus, UniProt Q8CI15); assay: Inhibition of recombinant mouse SphK1 expressed in baculovirus infected Sf9 cells using D-erythro-sphingosine and [gamma-32P]ATP as substrate incubated for 30 mins by liquid scintillation counting analysis
Chain of Sphingosine kinase 1 (Mus musculus, UniProt Q8CI15) (Q8CI15 whole entry): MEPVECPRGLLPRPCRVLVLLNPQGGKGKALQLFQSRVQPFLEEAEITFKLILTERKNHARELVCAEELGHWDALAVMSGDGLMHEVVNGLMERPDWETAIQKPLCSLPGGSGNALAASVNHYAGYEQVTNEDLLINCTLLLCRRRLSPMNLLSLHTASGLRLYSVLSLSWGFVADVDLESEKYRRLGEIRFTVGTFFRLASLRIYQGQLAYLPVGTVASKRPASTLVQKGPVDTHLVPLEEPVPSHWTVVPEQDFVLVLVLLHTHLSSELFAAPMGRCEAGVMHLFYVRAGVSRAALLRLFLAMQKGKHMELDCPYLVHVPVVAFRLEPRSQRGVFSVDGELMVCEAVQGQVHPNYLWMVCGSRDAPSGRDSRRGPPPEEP

IC50 [1]: 1.6 µM | IC50 [2]: 5.3 µM
SMILES: CCCCCCCCCCCCCC[C@@H]1OC[C@@H](N)[C@@H]1O

IC50 [3]: 4.3 µM | IC50 [4]: 24.8 µM
SMILES: CCCCCCCCCCCCCC[C@H]1OC[C@H](N)[C@@H]1O [2-EPI JASPINE B]

IC50 [5]: 3.1 µM
SMILES: COc1ccc2[nH]c(=O)c(/C=C/C(=O)c3ccc(Nc4nccc(-c5ccc6ccccc6c5)n4)cc3)cc2c1

Ki [6]: 12 µM
SMILES: CCCCCCCCCCCCC/C=C/[C@H](O)[C@@H](CO)N(C)C

IC50 [3]: 0.8 µM
SMILES: N[C@H]1CN[C@H](CCCCCCCCCCCOC2CCOCC2)[C@H]1O

IC50 [3]: > 30 µM | IC50 [4]: 3.2 µM
SMILES: CCCOCCCCCCCCCC[C@@H]1OC[C@@H](N)[C@@H]1O

Ki [7]: 0.04 µM | Ki [6]: 0.3 µM
SMILES: CCCCCCCCCCCCC/C=C/C(O)C(CO)NC(=N)N (centres undefined)

Ki [6]: 8 µM
SMILES: Oc1ccc(Nc2nc(-c3ccc(Cl)cc3)cs2)cc1

IC50 [8]: 4.6 µM | IC50 [9]: 6.6 µM
SMILES: CCCCCCCCCCCCCC[C@@H]1OC[C@H](N)[C@@H]1O

IC50 [10]: 71 µM | IC50 [5]: > 650 µM
SMILES: Brc1cc2c(c3ccccc13)N1OC(C2)CC1CCc1ccccc1 (centres undefined)

Ki [7]: 0.3 µM
SMILES: CC(=O)N(C1=C(Cl)C(=O)c2ccccc2C1=O)C1CCCCC1

Ki [11]: 1 µM | Ki [12]: 20 µM
SMILES: CCCCCCCCOc1ccc2cc(-c3noc(C4[C@@H](O)CCN4C(=N)N)n3)ccc2c1 (single isomer, unassigned)

Source: ChEMBL document CHEMBL5226290, “Rational design of SphK inhibitors using crystal structures aided by computer” (Eur J Med Chem, 2021)
